Results on one molecule are retold here after patent US20110195432A1, “METHODS FOR THE SELECTION OF THERAPEUTIC TREATMENTS FOR CANCER” (priority 2008, published 2011).

Entries after “also recorded” stand apart in the source; their conditions may differ.

One assay addresses T1, recombinant HDAC6 (Homo sapiens, UniProt Q9UBN7).
T1 sequence (Q9UBN7 1-1215): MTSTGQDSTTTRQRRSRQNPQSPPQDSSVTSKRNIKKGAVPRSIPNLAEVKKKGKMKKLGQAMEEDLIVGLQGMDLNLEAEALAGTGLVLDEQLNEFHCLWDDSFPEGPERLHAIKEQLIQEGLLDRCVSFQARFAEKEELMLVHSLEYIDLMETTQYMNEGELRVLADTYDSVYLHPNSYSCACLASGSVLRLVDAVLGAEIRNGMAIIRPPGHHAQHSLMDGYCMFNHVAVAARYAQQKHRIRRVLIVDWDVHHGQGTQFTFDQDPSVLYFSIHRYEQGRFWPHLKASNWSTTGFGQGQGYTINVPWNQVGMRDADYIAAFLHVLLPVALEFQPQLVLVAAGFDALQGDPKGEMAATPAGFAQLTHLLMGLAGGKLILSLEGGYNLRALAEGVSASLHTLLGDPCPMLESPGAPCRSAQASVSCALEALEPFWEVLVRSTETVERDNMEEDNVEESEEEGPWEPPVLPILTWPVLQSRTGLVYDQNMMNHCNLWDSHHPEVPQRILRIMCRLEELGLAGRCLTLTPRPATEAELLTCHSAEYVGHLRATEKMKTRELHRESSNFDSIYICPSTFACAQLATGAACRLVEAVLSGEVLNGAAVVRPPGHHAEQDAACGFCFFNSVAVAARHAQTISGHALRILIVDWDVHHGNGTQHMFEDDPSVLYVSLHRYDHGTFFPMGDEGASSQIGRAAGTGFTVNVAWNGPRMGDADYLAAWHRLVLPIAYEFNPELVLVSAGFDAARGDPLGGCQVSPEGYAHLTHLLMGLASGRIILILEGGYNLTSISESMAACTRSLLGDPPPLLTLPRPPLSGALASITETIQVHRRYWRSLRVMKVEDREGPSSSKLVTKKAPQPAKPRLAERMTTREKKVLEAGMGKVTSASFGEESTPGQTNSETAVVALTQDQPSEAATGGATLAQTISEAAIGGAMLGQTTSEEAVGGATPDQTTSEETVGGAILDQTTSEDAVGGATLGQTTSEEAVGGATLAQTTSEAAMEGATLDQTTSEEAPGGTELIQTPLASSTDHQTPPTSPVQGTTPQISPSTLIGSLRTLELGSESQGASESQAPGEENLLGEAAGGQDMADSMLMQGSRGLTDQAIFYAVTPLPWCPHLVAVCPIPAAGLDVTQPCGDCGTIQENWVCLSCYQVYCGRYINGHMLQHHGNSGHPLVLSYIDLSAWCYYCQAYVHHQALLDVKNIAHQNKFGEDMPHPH
The settings on record: cell-free; 7.5 or 15 μM sulforaphane, or 400 nM TSA; versus vehicle-treated HDAC6 control.

Another assay deals with HSP90. Conditions: sulforaphane 20 μM. The protocol:
(§1) LNCaP and VCaP cells were grown according to ATCC instructions. Sulforaphane (SFN, #S4441 Sigma, St. Louis, Mo.) was re-suspended in DMSO. Vehicle-treated cells received the respective vehicle controls Immunoprecipitations were carried out after treatment with sulforaphane (20 μM) or vehicle for 4 hours followed by a Western blot for HSP90 and AR. Enrichment was quantified for each immunoprecipitation. Inputs were probed with the indicated antibodies by Western blot and were quantified.
(§2) Immunoprecipitation and immunoblotting were performed as described (Qian et al., Clin. Cancer Res. 12:634-42, 2006). The following antibodies used in immunoblotting or immunoprecipitations (indicated dilutions are for immunoblotting): AR (1:1000, #06-680 Upstate, Billerica, Mass.); acetylated lysine (#05-515 Upstate, Billerica, Mass.); acetylated tubulin (1:2000, #T6793 Sigma, St. Louis, Mo.); alpha-tubulin (1:10,000, #T6074 Sigma, St. Louis, Mo.); beta-actin (1:5000, #A5441 Sigma, St. Louis, Mo.); ERG-1/2/3, (1:5000, #sc-354X Santa Cruz, Santa Cruz, Calif.); FLAG epitope (#F7425 Sigma, St. Louis, Mo.); GAPDH (1:5000, #sc-32233 Santa Cruz, Santa Cruz, Calif.); HDAC6 (1:1000, #sc-11420 Santa Cruz); HSP90 (1:1000, #SPA-840 Stressgen, Ann Arbor, Mich.); mouse IgG (#sc-2025 Santa Cruz, Santa Cruz, Calif.). The following secondary antibodies were used: ECL-conjugated anti-mouse IgG, (1:5000, #A6782 Sigma, St. Louis, Mo.); ECL-conjugated anti-rabbit IgG (1:3000, #NA934 Amersham, Piscataway, N.J. or 1:10,000, #sc-2004 Santa Cruz, Santa Cruz, Calif.). X-ray exposures were scanned as uncompressed images and bands were quantified by densitometry with Quantity One software (Bio-Rad, Hercules, Calif.). Intensity values were normalized to those of the endogenous controls. The vehicle sample was set to 1. Enrichment was calculated as: (intensity IP/intensity input)/(intensity IgG/intensity input) or intensity IP/input (FIG. 1B).

For another assay, the system named is HSP90 and AR. The procedure: as §1, §2

In the case of `C[S+]([O-])CCCCN=C=S` (centres unmarked) [sulforaphane, 1-Isothiocyanato-4-methylsulfinylbutane], the “HDAC6 deacetylase activity on tubulin” value on recombinant HDAC6 is on record as “decreased HDAC6 deacetylase activity; also recorded: inhibited HDAC6 deacetylase activity”. For the same molecule, in the assay on HSP90 (LNCaP cells, four hours, versus vehicle-treated cells), the “enrichment of acetylated lysines on the HSP90 protein” value is “increased enrichment of acetylated lysines on the HSP90 protein”. For the same molecule, the “levels of HSP90 in input whole cell lysate” value with HSP90 (4 hours, versus vehicle) is on record as “similar”. Further, the “interaction between HSP90 and AR” value in the assay on HSP90 and AR (4 hour sulforaphane treatment, as opposed to vehicle) is on record as “disrupted”. Also, in the assay on HSP90 and AR (4 hour treatment, vehicle versus sulforaphane), the “Levels of acetylation of the AR” value is recorded as “similar”.
